The text below walks through data of US9303016B2, “Derivatives of aza adamantane and uses thereof” (CONNEXIOS LIFE SCIENCES PVT. LTD., priority 2011, dated 2016).

pIC50: −log10 of the molar value. Where only a bound is given, the exact number is not on record here.

T1 sequence (P28845 whole entry): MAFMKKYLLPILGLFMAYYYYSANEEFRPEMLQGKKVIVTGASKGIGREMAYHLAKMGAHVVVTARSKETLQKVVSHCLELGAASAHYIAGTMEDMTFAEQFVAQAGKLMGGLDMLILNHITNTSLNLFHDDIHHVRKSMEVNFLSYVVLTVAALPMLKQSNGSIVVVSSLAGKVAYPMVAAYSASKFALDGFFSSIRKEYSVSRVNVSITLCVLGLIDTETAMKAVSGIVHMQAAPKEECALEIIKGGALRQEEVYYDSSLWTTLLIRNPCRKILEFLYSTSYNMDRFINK

This experiment has as its target T1, human full length HSD11β1 (Homo sapiens, UniProt P28845).
T1 construct: transient expression of human full length HSD11β1 expression vector; host or cells: CHO cells, transient transfection
Briefly: In Vitro HSD11β1 Inhibition Assay. The class given is cell-based. The note with it: CHO cells transiently expressing human HSD11β1; 200 nM cortisone+500 uM NADPH overnight; cortisone to cortisol by LC/MS-MS; read-out: 11βHSD1 (IC50). As to the method: In Vitro HSD11β1 Inhibition Assay:
CHO cells were maintained in Dulbecco's modified Eagle's medium/nutrient mixture F-12 containing 5% fetal bovine serum (v/v) and 2 mM glutamine. Cells were cultured at 37° C. with 5% CO2. For transient expression of human full length HSD11β1 expression vector (OriGene Technologies), cells were seeded at a density of 2×10^5 cells/well in a 6-well plate. Transfection was done using Turbofectin8 reagent (OriGene Technologies), according to the protocol provided with the reagent. After 24 hours post-transfection, cells were trypsinized and pooled together before they were re-seeding to 96-well plate at a density of 40000 cells/well. 24 hours after re-seeding, cells were incubated with 200 nM cortisone+500 uM NADPH (or along with small molecule inhibitors) overnight. The enzymatic activity or inhibition of enzyme activity was measured by estimating the conversion of cortisone to cortisol by LC/MS-MS method. The IC50 in nM was calculated from a 8 point log scale of concentration versus inhibition.
In the case of `CC(CC(=O)N1C2CC3CC1CC(O)(C3)C2)c1c[nH]c2cccc(-c3cccs3)c12` (single isomer, unassigned) [Compound 189, 1-(5-hydroxy-2-azatricyclo[3.3.1.1^3,7]dec-2-yl)-3-[4-(thiophen-2-yl)-1H-indol-3-yl]butan-1-one], the pIC50 was less than 6.60.

As to `CC(C)C(CC(=O)N1C2CC3CC1CC(F)(C3)C2)c1c[nH]c2ccccc12` (centres unmarked) [Example 24, 1-(5-fluoro-2-azatricyclo[3.3.1.1^3,7]dec-2-yl)-3-(1H-indol-3-yl)-4-methylpentan-1-one], the negative logarithm of the IC50 (pIC50) was less than 6.60.

As for `CC(CC(=O)N1C2CC3CC1CC(C(N)=O)(C3)C2)c1c[nH]c2cccc(C3CC3)c12` (centres unmarked) [Example 56, 2-[3-(4-cyclopropyl-1H-indol-3-yl)butanoyl]-2-azatricyclo[3.3.1.1^3,7]decane-5-carboxamide], the pIC50 was more than 7.00.

On to `Cc1cccc2[nH]cc(C(C)CC(=O)N3C4CC5CC3CC(O)(C5)C4)c12` (single isomer, unassigned) [Example 49, 1-(5-hydroxy-2-azatricyclo[3.3.1.1^3,7]dec-2-yl)-3-(4-methyl-1H-indol-3-yl)butan-1-one], for which the negative logarithm of the IC50 (pIC50) is more than 7.00.

As to `O=C(CCc1c[nH]c2ccccc12)N1C2CC3CC(C2)CC1C3` [Example 1, 1-(2-azatricyclo[3.3.1.1^3,7]dec-2-yl)-3-(1H-indol-3-yl)propan-1-one], the pIC50 is less than 6.60.

`CC(CC(=O)N1C2CC3CC1CC(O)(C3)C2)c1c[nH]c2ccccc12` (single isomer, unassigned) [Example 21, 1-(5-hydroxy-2-azatricyclo[3.3.1.1^3,7]dec-2-yl)-3-(1H-indol-3-yl)butan-1-one]: the pIC50 was less than 6.60.

With `CC(CC(=O)N1C2CC3CC1CC(O)(C3)C2)c1c[nH]c2cc(Cl)c(F)cc12` (centres unmarked) [Compound 133, 3-(6-chloro-5-fluoro-1H-indol-3-yl)-1-(5-hydroxy-2-azatricyclo[3.3.1.1^3,7]dec-2-yl)butan-1-one], the negative logarithm of the IC50 (pIC50) was 6.82 to 7.00.

Turning to `Cc1[nH]c2ccc(F)cc2c1C(C)CC(=O)N1C2CC3CC1CC(O)(C3)C2` (centres unmarked) [Compound 113, 3-(5-fluoro-2-methyl-1H-indol-3-yl)-1-(5-hydroxy-2-azatricyclo[3.3.1.1^3,7]dec-2-yl)butan-1-one], the pIC50 is less than 6.60.

With `Cc1cccc2[nH]cc(CCC(=O)N3C4CC5CC(C4)CC3C5)c12` [Example 2, 1-(2-azatricyclo[3.3.1.1^3,7]dec-2-yl)-3-(4-methyl-1H-indol-3-yl)propan-1-one], the negative logarithm of the IC50 (pIC50) was 6.82 to 7.00.

Turning to `CC(CC(=O)N1C2CC3CC1CC(C(=O)O)(C3)C2)c1c[nH]c2ncccc12` (centres unmarked) [Compound 91, 2-[3-(1H-pyrrolo[2,3-b]pyridin-3-yl)butanoyl]-2-azatricyclo[3.3.1.1^3,7]decane-5-carboxylic acid], the pIC50 is less than 6.60.

Consider `CC(CC(=O)N1C2CC3CC1CC(O)(C3)C2)c1nc2c(Cl)cccc2s1` (centres unmarked) [Compound 120, 3-(4-chloro-1,3-benzothiazol-2-yl)-1-(5-hydroxy-2-azatricyclo[3.3.1.1^3,7]dec-2-yl)butan-1-one], for which the pIC50 is less than 6.60.

In the case of `CC(CC(=O)N1C2CC3CC(C2)CC1C3)c1c[nH]c2ncccc12` (centres unmarked) [Compound 85], the pIC50 was more than 7.00.

As to `Cc1cccc2[nH]cc(C(C)CC(=O)N3C4CC5CC3CC(c3nnn[nH]3)(C5)C4)c12` (centres unmarked) [Compound 77, 3-(4-methyl-1H-indol-3-yl)-1-[5-(1H-tetrazol-5-yl)-2-azatricyclo[3.3.1.1^3,7]dec-2-yl]butan-1-one], the pIC50 is less than 6.60.

For `CC(C)Oc1cccc2[nH]cc(C(C)CC(=O)N3C4CC5CC3CC(F)(C5)C4)c12` (single isomer, unassigned) [Compound 184, 1-(5-fluoro-2-azatricyclo[3.3.1.1^3,7]dec-2-yl)-3-[4-(propan-2-yloxy)-1H-indol-3-yl]butan-1-one], the pIC50 was more than 7.00.

`CC(CC(=O)N1C2CC3CC1CC(OCC1CC1)(C3)C2)c1c[nH]c2cccc(F)c12` (centres unmarked) [Example 33, 1-[5-(cyclopropylmethoxy)-2-azatricyclo[3.3.1.1^3,7]dec-2-yl]-3-(4-fluoro-1H-indol-3-yl)butan-1-one]: the negative-log IC50 (pIC50) was less than 6.60.

As to `CC(CC(=O)N1C2CC3CC1CC(O)(C3)C2)c1c[nH]c2ncc(Cl)c(C3CC3)c12` (single isomer, unassigned) [Compound 200, 3-(5-chloro-4-cyclopropyl-1H-pyrrolo[2,3-b]pyridin-3-yl)-1-(5-hydroxy-2-azatricyclo[3.3.1.1^3,7]dec-2-yl)butan-1-one], the pIC50 is less than 6.60.

As for `CC(CC(=O)N1C2CC3CC1CC(O)(C3)C2)c1c[nH]c2ccc(Cl)c(Cl)c12` (single isomer, unassigned) [Compound 172, 3-(4,5-dichloro-1H-indol-3-yl)-1-(5-hydroxy-2-azatricyclo[3.3.1.1^3,7]dec-2-yl)butan-1-one], the pIC50 is less than 6.60.

In the case of `O=C(CCc1nc2ccccc2s1)N1C2CC3CC(C2)CC1C3` [Example 11, 1-(2-azatricyclo[3.3.1.1^3,7]dec-2-yl)-3-(1,3-benzothiazol-2-yl)propan-1-one], the pIC50 is less than 6.60.

On to `Cc1ccc2[nH]cc(C(C)CC(=O)N3C4CC5CC3CC(O)(C5)C4)c2c1Cl` (centres unmarked) [Compound 166, 3-(4-chloro-5-methyl-1H-indol-3-yl)-1-(5-hydroxy-2-azatricyclo[3.3.1.1^3,7]dec-2-yl)butan-1-one], for which the pIC50 was more than 7.00.

In the case of `CC(CC(=O)N1C2CC3CC1CC(C#N)(C3)C2)c1nc2c(Cl)cccc2s1` (centres unmarked) [Compound 123, 2-[3-(4-chloro-1,3-benzothiazol-2-yl)butanoyl]-2-azatricyclo[3.3.1.1^3,7]decane-5-carbonitrile], the pIC50 was less than 6.60.

Regarding `Cc1c(F)ccc2[nH]cc(C(C)CC(=O)N3C4CC5CC3CC(O)(C5)C4)c12` (single isomer, unassigned) [Compound 148, 3-(5-fluoro-4-methyl-1H-indol-3-yl)-1-(5-hydroxy-2-azatricyclo[3.3.1.1^3,7]dec-2-yl)butan-1-one], the pIC50 is more than 7.00.

Regarding `CC(CC(=O)N1C2CC3CC1CC(O)(C3)C2)c1c[nH]c2cccc(Cl)c12` (single isomer, unassigned) [Example 37, 3-(4-chloro-1H-indol-3-yl)-1-(5-hydroxy-2-azatricyclo[3.3.1.1^3,7]dec-2-yl)butan-1-one], the negative logarithm of the IC50 (pIC50) was more than 7.00.

In the case of `O=C(CC(c1ccccc1)c1c[nH]c2cc(F)ccc12)N1C2CC3CC1CC(C(=O)O)(C3)C2` (centres unmarked) [Compound 112, 2-[3-(6-fluoro-1H-indol-3-yl)-3-phenylpropanoyl]-2-azatricyclo[3.3.1.1^3,7]decane-5-carboxylic acid], the pIC50 is 6.60 to 6.70.

Consider `O=C(CCc1nc2ccccc2s1)N1C2CC3CC1CC(O)(C3)C2` [Example 12, 3-(1,3-benzothiazol-2-yl)-1-(5-hydroxy-2-azatricyclo[3.3.1.1^3,7]dec-2-yl)propan-1-one], for which the pIC50 is less than 6.60.

`COc1cc2c(C(C)CC(=O)N3C4CC5CC3CC(O)(C5)C4)c[nH]c2cc1Cl` (single isomer, unassigned) [Compound 130, 3-(6-chloro-5-methoxy-1H-indol-3-yl)-1-(5-hydroxy-2-azatricyclo[3.3.1.1^3,7]dec-2-yl)butan-1-one]: the pIC50 was more than 7.00.

As for `Cn1cc(C(C)(C)CC(=O)N2C3CC4CC2CC(O)(C4)C3)c2ccccc21` [Example 10, 1-(5-hydroxy-2-azatricyclo[3.3.1.1^3,7]dec-2-yl)-3-methyl-3-(1-methyl-1H-indol-3-yl)butan-1-one], the pIC50 is less than 6.60.
